Data reported in patent US9517269B1, “Stable pentobarbital formulation” (Akorn, Inc., priority 2013, dated 2016).

Assays:
[1] = Formulation Development Study #2 (target pH 8.70): physical observations; assay type: physicochemical; details: below pH 8.7
Procedure: Based on Formulation Development Study #1, four more lab batches were made with different concentrations of propylene glycol and ethyl alcohol at target pH 8.70. The purpose of the study was to determine the influence of low pH and different concentrations of propylene glycol and ethyl alcohol on the product quality. Physical observations were recorded during compounding. Lab batch samples were placed on stability at room temperature, 40° C. and 50° C. Only physical observations were performed and recorded during stability. The stability study lasted one month.

[2] = Formulation Development Study #4 (target pH 9.0): physical observations; assay type: physicochemical; details: pH ˜9.0 and propylene glycol concentration less than 50%
Procedure: Four lab batches similar to Formulation Development Study #3 were made. The purpose of these batches was to find out if impurity at RRT 0.7 can be reduced by making lab batches with different concentrations of propylene glycol and alcohol at the target pH of 9.0. […] These four lab batches were placed on stability at room temperature, 40° C., and 50° C.

[3] = Formulation Development Study #5 (44% propylene glycol): physical observations; assay type: physicochemical; details: with 44% propylene glycol at pH-9.0
Procedure: In order to determine at what pH precipitate forms at room temperature, three lab batches were made with 44% propylene glycol and target pH at 9.1, 9.0 and 8.9. […] Lab batch samples were placed on stability at room temperature, 40° C., and 50° C. for three months. Only physical observations were performed during the stability study.

[4] = background statement; cited from earlier work

CCCC(C)C1(CC)C(=O)NC(=O)NC1=O (stereo not shown) [pentobarbital, 5-Ethyl-5-(1-methylbutyl)-2,4,6(1H,3H,5H)-pyrimidinetrione]
Stability of pentobarbital in solution (precipitation) [1]: not stable
Stability of pentobarbital in solution (precipitation) [2]: not stable
Stability of pentobarbital in solution (precipitation) [3]: not stable
pH at which pentobarbital precipitates [4]: less than 9.0
